Laboratory results reported in patent publication US20240156832A1, “METHODS OF METABOLIZING METOPIMAZINE AND ITS SALTS” (Neurogastrx, Inc., priority 2020, published 2024).

Experiments:
microsomal FMOs in HLM = assay: Incubation with HLM for FMO (pH 8.4, methimazole, heat); format: in vitro ADME, human; details: 1 and 10 μM MPZ, NADPH, with and without methimazole, heat-pretreated control
Procedure: MPZ, at 1.0 and 10.0 μM, was incubated with HLM or HKM to determine the contribution of microsomal FMOs on the metabolism of MPZ.
A reaction mixture containing KPi buffer (pH 8.4), HLM or HKM (0.5 mg/mL protein) and MPZ (1.0 and 10.0 μM) was pre-incubated for 3-5 minutes at 37° C. The reaction was initiated by the addition of NADPH into the reaction mixture. Reaction was conducted for 0 and 60 min. A positive control (benzydamine, 100 μM) was incubated in duplicate for 0 and 20 minutes. Parallel incubation was conducted by adding 1 mM methimazole, a non-specific FMO inhibitor, under identical conditions. Heat inactivated microsomes (50° C. for at least 5 minutes) was incubated under identical conditions negative control. All other procedures were the same as described previously.

[1] = for Peak Area at Time 0 / Peak Area at Time 90 min: metopimazine incubation in human liver microsomes, full scan LC-MS
Procedure: For protein concentration optimization, MPZ at 1 μM was incubated with varying concentration of HLM proteins (0.1, 0.25, 0.5, and 1.0 mg/mL microsomal protein), 100 mM KPi buffer (pH 7.4). After pre-incubation for 3-5 minutes at 37° C., the reaction was initiated by the addition of NADPH (1 mM) for 60 minutes in triplicates.
For incubation time optimization, MPZ at 1 μM was incubated with pooled HLM (0.5 mg/mL microsomal protein) and 100 mM KPi buffer (pH 7.4). After pre-incubation for) for 3-5 minutes at 37° C., the reaction was initiated by the addition NADPH (1 mM) incubated for 0, 10, 20, 40, 60, and 90 minutes to determine the optimal incubation time (linear range). All metabolic reactions in this study were terminated by the addition of chilled organic solvent (acetonitrile:ethanol 90:10, v/v) containing internal standards, unless otherwise indicated.
LC separation conditions were developed for MPZ and its metabolites (MPZA and MPZS), 7 hydroxycoumarin, each metabolite of CYP probe substrate, benzydamine N oxide, and phthalazine. The LC MS/MS system consisted of a Shimadzu Nexera X2 LC-30 UPLC system (Shimadzu Corporation, Kyoto, Japan), and an API 4000 triple quadrupole mass spectrometer (SCIEX, Framingham, MA) was used for analysis. All analytes were analyzed using electrospray ionization (ESI) in positive ion mode except for 7-EC, which used negative ion mode. The LC-MS/MS system was controlled by Analyst software (version 1.6.1, SCIEX, Framingham, MA).
For each analytical method, a calibration curve was generated for the quantification of MPZ and its two metabolites (MPZA and MPZS). […] PAR was also used for all positive control compounds.
% parent remaining=(mean concentration or PAR at each sampling time point/mean concentration or PAR of time zero)×100

Dog PK study = format: in vivo, beagle dogs
Procedure: The pharmacokinetics of metopimazine (parent) and metopimazine acid (metabolite) were evaluated in three male, beagle dogs following a single oral dose of 10 mg/kg metopimazine (free base). The dogs were obtained from Marshall BioResources (North Rose, NY). Animals were weighed prior to each dose administration for the purpose of dose calculation. Metopimazine was administered in size 13 gelatin capsules. Whole venous blood samples of approximately 1.0 mL were collected from a peripheral vein of all animals for determination of metopimazine and metopimazine acid. Samples were collected at the following timepoints: 0.25, 0.5, 1, 2, 4, 8, 12, and 24 hours after test article administration. All animals were sampled at each timepoint. Samples were collected in tubes containing K2EDTA and placed on ice until processed for plasma by centrifugation under refrigeration for at least ten minutes at 3000 rpm. After centrifugation, supernatant was removed and stored frozen in a −70° C. freezer until analyzed by LC-MS/MS.
(§1) An MRM LC-MS/MS method was developed for MPZ and metopimazine acid (MPZA) in rat, dog, and human plasma. The method was run in reverse phase in positive ion mode. […] D6-isotopically labeled internal standards were used for each analyte. The following m/z transitions were monitored: metopimazine 446.3→141.1 and metopimazine acid 447.2→142.1.
(§2) Noncompartmental Pharmacokinetics analysis was performed in Phoenix 64 Winnonlin version 8.1.

[2] = Incubation of MPZ in human liver S9; format: in vitro ADME
Procedure: Initial experiment was conducted with S9 fractions from liver and intestine to assess the role of liver and intestinal enzymes in the metabolism of MPZ. The reaction mixture contained 2.5 μM MPZ, pooled human liver or intestine S9 fraction (1 mg/mL S9 protein), 100 mM KPi buffer (pH 7.4). The reaction mixture was pre-incubated for 3-5 min at 37° C. in a humidified incubator filled with 5% CO2 followed by the addition of NADPH (1 mM) to initiate the reaction. The reaction was incubated for 0 and 60 min. The total percentage of organic solvent in incubation mixture was <0.1%. The reactions were terminated by the addition of sample mixture of acetonitrile and ethanol (90:10, v/v). The positive control substrate, 7-EC, was incubated in triplicate in an identical manner as MPZ for S9 fractions.

Rat PK study = format: in vivo, Sprague Dawley rats
Procedure: The pharmacokinetics of metopimazine (parent) and metopimazine acid (metabolite) were evaluated in male and female Sprague Dawley rats following a single oral dose of 45 mg/kg metopimazine (free base). Three animals per sex in each dose group were sampled at each timepoint after administration (0.25, 0.5, 1, 2, 4, 8, 12, and 24 hours). The rats (Rattus norvegicus) were obtained from Envigo RMS, Inc. (Indianapolis, IN) and were 2 months old. Animals were weighed prior to each dose administration for the purpose of dose calculation. Whole venous blood samples of approximately 0.5 mL were collected from a peripheral vein of animals for determination of exposure to metopimazine and metopimazine acid. Three animals per sex were sampled at each timepoint. Samples were collected in tubes containing K2EDTA with protease inhibitor cocktail (Sigma, #P8340, at ratio 1:100) and placed on ice until processed for plasma by centrifugation under refrigeration for at least ten minutes at 3000 rpm. After centrifugation, supernatant was removed and stored frozen in a −70° C. freezer until analyzed by LC-MS/MS.
as §1, §2

[3] = male, beagle, dog, in vivo, po, 10 mg/kg
[4] = female, Sprague Dawley, rat, in vivo, po, 45 mg/kg
[5] = male, Sprague Dawley, rat, in vivo, po, 45 mg/kg

| SMILES | MPZA formation in HLM at pH 8.4 (microsomal FMOs in HLM) | Peak Area at Time 0 [1] | Peak Area at Time 90 min [1] | MPZA metabolite to parent ratio compared with humans (Dog PK study; dogs) | AUC(0-inf) (Dog PK study; [3]) | metabolites formed ([2]; human liver S9, 60-minute incubation) | AUC(0-inf) (Rat PK study; [4]) | Cmax (Rat PK study; [4]) | Tmax (Rat PK study; [4]) | AUCinf (Rat PK study; [5]) | Cmax (Rat PK study; [5]) | MPZA metabolite to parent ratio compared with humans (Rat PK study; rats) | MPZ remaining ([1]; human, microsomes, 1 h, 1 μM, pH 7.4) | Tmax (Dog PK study; [3]) | MPZ disappeared ([2]; human liver S9 1 mg/mL, 2.5 μM MPZ, NADPH, 60-minute incubation) | AUCinf (Rat PK study; [4]) |
| --- | --- | --- | --- | --- | --- | --- | --- | --- | --- | --- | --- | --- | --- | --- | --- | --- |
| CS(=O)(=O)c1ccc2c(c1)N(CCCN1CCC(C(=O)O)CC1)c1ccccc1S2 [MPZA, metopimazine acid] | Considerable formation of MPZA was observed with all conditions | 0 | 208 | far lower in dogs | 1030 ng·h/mL | formed | 944 ng·h/mL | 106 ng/mL | 4 h | 755 ng·h/mL | 89 ng/mL | particularly lower in rats | – | – | – | – |
| CS(=O)(=O)c1ccc2c(c1)N(CCCN1CCC(C(N)=O)CC1)c1ccccc1S2 [MPZ, metopimazine] | – | 2373 | 715 | – | 3190 ng·h/mL | – | – | 1730 ng/mL | 4 h | 8160 ng·h/mL | 1080 ng/mL | – | 37.2% | 0.833 h | approximately 30% | 13800 ng·h/mL |
